Laboratory results from US12295936B2, “Immunomodulating urea azalides” (Zoetis Services LLC, priority 2020, dated 2025).
Like-named read-outs stand apart in the source and are kept apart here.

What was measured:
[1] = system: BRD pathogens, M. haemolytica and P. multocida; experiment: MIC screening panel of BRD pathogens (antibacterial / non-antibacterial)
TNF-α = experiment: LPS-stimulated whole bovine blood assay, MSD cytokine detection; format: cell-based; conditions: LPS-stimulated bovine whole blood, read-out: TNF-α (IC50 μM)
Description: (§1) Therefore, a fresh whole bovine blood assay was developed with LPS as a stimulant (TLR-4 agonist) and with IL-1β and TNF-α as the read-out. Compounds of the invention were evaluated against a positive control for their ability to inhibit LPS-induced IL-1β and TNF-α as an overall evaluation of relative potency and modulation of target pathways (Table 6).
In the bovine whole blood in vitro screening assay the inhibition of TNFα as induced by stimulation by lipopolysaccharide (LPS) and as measured by half the maximal inhibitory concentration (IC50) is recognized as the primary biomarker of immunomodulation potency upon pretreatment with the compounds of the invention. IL-1β is a mediator of the inflammation response and is involved in a number of cellular activities including proliferation, differentiation and apoptosis. IL-1β is also released upon cellular stress or cytotoxicity or upon TLR stimulation. In the bovine whole blood assay the stimulation of IL-1β release upon increasing concentration of test compound is seen as a potential cellular toxicity signal as induced by the test compound. In order to estimate a therapeutic index from the in vitro assay a differential between the TNFα IC50 (immunomodulation potency) versus the perceived cellular toxicity concentration (IL-1β release or overstimulation) was utilized.

IL-1β = experiment: as above; format: cell-based; conditions: overstimulation of IL-1β, LPS-stimulated bovine whole blood
Description: as §1, with “The effect of multiple cytokines was not easily quantified using single cell types. Therefore,” for “Therefore,”
In order to correlate RNA sequencing data to cytokine changes the whole blood assay was utilized. […] The enhancement result represents an overall stimulation of cytokine levels due to cellular stress or potential toxicity with increasing concentrations of the compound, representing a typical bell shape response curve for immunomodulatory activity.
In the bovine whole blood in vitro screening assay the inhibition of TNFα as induced by stimulation by lipopolysaccharide (LPS) and as measured by half the maximal inhibitory concentration (IC50) is recognized as the primary biomarker of immunomodulation potency upon pretreatment with the compounds of the invention.

[2] = read-out: MIC ≤64 μg/mL for at least one of the bacterial strains (flag * at Ex #)
[3] = read-out: antibacterial / non-antibacterial (MIC for the BRD pathogens)

| Structure (SMILES) | MIC [1, 2] [µg/mL] | IC50 (TNF-α; Bos taurus) [µM] | IL-1β OS of LPS (IL-1β) [µM] | MIC [1, 3] [µg/mL] | IC50 (TNF-α) [µM] |
| --- | --- | --- | --- | --- | --- |
| CC[C@H]1OC(=O)[C@H](C)[C@@H](O[C@H]2C[C@@](C)(OC)[C@](O)(CN3CCc4ccccc4C3)[C@H](C)O2)[C@H](C)[C@@H](O[C@@H]2O[C@H](C)C[C@H](N(C)C(=O)N(C)c3ccccc3)[C@H]2O)[C@](C)(O)C[C@@H](C)CN[C@H](C)[C@@H](O)[C@]1(C)O [Example J-25, 1-((2S,3R,4S,6R)-2-(((2R,3S,4R,5R,8R,10R,11R,12S,13S,14R)-13-(((2R,4R,5S,6S)-5-((3,4-dihydroisoquinolin-2(1H)-yl)methyl)-5-hydroxy-4-methoxy-4,6-dimethyltetrahydro-2H-pyran-2-yl)oxy)-2-ethyl-3,4,10-trihydroxy-3,5,8,10,12,14-hexamethyl-15-oxo-1-oxa-6-azacyclopentadecan-11-yl)oxy)-3-hydroxy-6-methyltetrahydro-2H-pyran-4-yl)-1,3-dimethyl-3-phenylurea] | < 64 | 6 | 16 | – | – |
| CC[C@H]1OC(=O)[C@H](C)[C@@H](O[C@H]2C[C@@](C)(OC)[C@](O)(CN3CC(N4CCCCC4)C3)[C@H](C)O2)[C@H](C)[C@@H](O[C@@H]2O[C@H](C)C[C@H](N(C)C(=O)N(C)c3ccccc3)[C@H]2O)[C@](C)(O)C[C@@H](C)CN[C@H](C)[C@@H](O)[C@]1(C)O [Example J-19, 1-((2S,3R,4S,6R)-2-(((2R,3S,4R,5R,8R,10R,11R,12S,13S,14R)-2-ethyl-3,4,10-trihydroxy-13-(((2R,4R,5S,6S)-5-hydroxy-4-methoxy-4,6-dimethyl-5-((3-(piperidin-1-yl)azetidin-1-yl)methyl)tetrahydro-2H-pyran-2-yl)oxy)-3,5,8,10,12,14-hexamethyl-15-oxo-1-oxa-6-azacyclopentadecan-11-yl)oxy)-3-hydroxy-6-methyltetrahydro-2H-pyran-4-yl)-1,3-dimethyl-3-phenylurea] | – | 19 | 16 | > 64 | – |
| CCCNC[C@]1(O)[C@H](C)O[C@@H](O[C@H]2[C@H](C)[C@@H](O[C@@H]3O[C@H](C)C[C@H](N(C)C(=O)N(C)Cc4ccccc4)[C@H]3O)[C@](C)(O)C[C@@H](C)CN[C@H](C)[C@@H](O)[C@](C)(O)[C@@H](CC)OC(=O)[C@@H]2C)C[C@@]1(C)OC [Example H-40, 1-benzyl-3-((2S,3R,4S,6R)-2-(((2R,3S,4R,5R,8R,10R,11R,12S,13S,14R)-2-ethyl-3,4,10-trihydroxy-13-(((2R,4R,5S,6S)-5-hydroxy-4-methoxy-4,6-dimethyl-5-((propylamino)methyl)tetrahydro-2H-pyran-2-yl)oxy)-3,5,8,10,12,14-hexamethyl-15-oxo-1-oxa-6-azacyclopentadecan-11-yl)oxy)-3-hydroxy-6-methyltetrahydro-2H-pyran-4-yl)-1,3-dimethylurea] | – | 45 | 40 | > 64 | – |
| CC[C@H]1OC(=O)[C@H](C)[C@@H](O[C@H]2C[C@@](C)(OC)[C@](C)(O)[C@H](C)O2)[C@H](C)[C@@H](O[C@@H]2O[C@H](C)C[C@H](N(C)C(=O)N(C)c3ccccc3)[C@H]2O)[C@](C)(O)C[C@@H](C)CN[C@H](C)[C@@H](O)[C@]1(C)O [Example B-1a, 1-((2S,3R,4S,6R)-2-(((2R,3S,4R,5R,8R,10R,11R,12S,13S,4R)-2-ethyl-3,4,10-trihydroxy-13-(((2R,4R,5R,6S)-5-hydroxy-4-methoxy-4,5,6-trimethyltetrahydro-2H-pyran-2-yl)oxy)-3,5,8,10,12,14-hexamethyl-11S-oxo-1-oxa-6-azacyclopentadecan-11-yl)oxy)-3-hydroxy-6-methyltetrahydro-2H-pyran-4-yl)-1,3-dimethyl-3-phenylurea] | – | – | 40 | – | 32 |
| CCCNC[C@]1(O)[C@H](C)O[C@@H](O[C@H]2[C@H](C)[C@@H](O[C@@H]3O[C@H](C)C[C@H](N(C)C(=O)N4CCc5ccccc54)[C@H]3O)[C@](C)(O)C[C@@H](C)CN[C@H](C)[C@@H](O)[C@](C)(O)[C@@H](CC)OC(=O)[C@@H]2C)C[C@@]1(C)OC [Example I-3, N-((2S,3R,4S,6R)-2-(((2R,3S,4R,5R,8R,10R,11R,12S,13S,14R)-2-ethyl-3,4,10-trihydroxy-13-(((2R,4R,5S,6S)-5-hydroxy-4-methoxy-4,6-dimethyl-5-((propylamino)methyl)tetrahydro-2H-pyran-2-yl)oxy)-3,5,8,10,12,14-hexamethyl-15-oxo-1-oxa-6-azacyclopentadecan-11-yl)oxy)-3-hydroxy-6-methyltetrahydro-2H-pyran-4-yl)-N-methylindoline-1-carboxamide] | – | 40 | 32 | – | – |
| CCCNC[C@]1(O)[C@H](C)O[C@@H](O[C@H]2[C@H](C)[C@@H](O[C@@H]3O[C@H](C)C[C@H](N(C)C(=O)N(C)c4cnccn4)[C@H]3O)[C@](C)(O)C[C@@H](C)CN[C@H](C)[C@@H](O)[C@](C)(O)[C@@H](CC)OC(=O)[C@@H]2C)C[C@@]1(C)OC [Example H-46, 1-((2S,3R,4S,6R)-2-(((2R,3S,4R,5R,8R,10R,11R,12S,13S,14R)-2-ethyl-3,4,10-trihydroxy-13-(((2R,4R,5S,6S)-5-hydroxy-4-methoxy-4,6-dimethyl-5-((propylamino)methyl)tetrahydro-2H-pyran-2-yl)oxy)-3,5,8,10,12,14-hexamethyl-15-oxo-1-oxa-6-azacyclopentadecan-11-yl)oxy)-3-hydroxy-6-methyltetrahydro-2H-pyran-4-yl)-1,3-dimethyl-3-(pyrazin-2-yl)urea] | – | > 250 | 100 | – | – |
| CC[C@H]1OC(=O)[C@H](C)[C@@H](O[C@H]2C[C@@](C)(OC)[C@@H](O)[C@H](C)O2)[C@H](C)[C@@H](O[C@@H]2O[C@H](C)C[C@H](N(C)C(=O)NC3CCCCC3)[C@H]2O)[C@](C)(O)C[C@@H](C)CN(C)[C@H](C)[C@@H](O)[C@]1(C)O [Example B-10, 3-cyclohexyl-1-((2S,3R,4S,6R)-2-(((2R,3S,4R,5R,8R,10R,11R,12S,13S,14R)-2-ethyl-3,4,10-trihydroxy-13-(((2R,4R,5S,6S)-5-hydroxy-4-methoxy-4,6-dimethyltetrahydro-2H-pyran-2-yl)oxy)-3,5,6,8,10,12,14-heptamethyl-15-oxo-1-oxa-6-azacyclopentadecan-11-yl)oxy)-3-hydroxy-6-methyltetrahydro-2H-pyran-4-yl)-1-methylurea] | – | – | – | > 64 | – |
| CC[C@H]1OC(=O)[C@H](C)[C@@H](O[C@H]2C[C@@](C)(OC)[C@](O)(CN3CCSCC3)[C@H](C)O2)[C@H](C)[C@@H](O[C@@H]2O[C@H](C)C[C@H](N(C)C(=O)N(C)c3ccccc3)[C@H]2O)[C@](C)(O)C[C@@H](C)CN[C@H](C)[C@@H](O)[C@]1(C)O [Example J-11, 1-((2S,3R,4S,6R)-2-(((2R,3S,4R,5R,8R,10R,11R,12S,13S,14R)-2-ethyl-3,4,10-trihydroxy-13-(((2R,4R,5S,6S)-5-hydroxy-4-methoxy-4,6-dimethyl-5-(thiomorpholinomethyl)tetrahydro-2H-pyran-2-yl)oxy)-3,5,8,10,12,14-hexamethyl-15-oxo-1-oxa-6-azacyclopentadecan-11-yl)oxy)-3-hydroxy-6-methyltetrahydro-2H-pyran-4-yl)-1,3-dimethyl-3-phenylurea] | < 64 | – | – | – | – |
| CC[C@H]1OC(=O)[C@H](C)[C@@H](O)[C@H](C)[C@@H](O[C@@H]2O[C@H](C)C[C@H](N(C)C(=O)Nc3cnccn3)[C@H]2O)[C@](C)(O)C[C@@H](C)CN[C@H](C)[C@@H](O)[C@]1(C)O [Example A-2, 1-((2S,3R,4S,6R)-2-(((2R,3S,4R,5R,8R,10R,11R,12S,13S,14R)-2-ethyl-3,4,10,13-tetrahydroxy-3,5,8,10,12,14-hexamethyl-15-oxo-1-oxa-6-azacyclopentadecan-11-yl)oxy)-3-hydroxy-6-methyltetrahydro-2H-pyran-4-yl)-1-methyl-3-(pyrazin-2-yl)urea] | – | – | – | > 64 | – |
